{"source": "patent US20210000757A1", "about": "“TOPICAL COMPOSITION” (Futura Medical Developments Limited, priority 2017, published 2021)", "key": {"[1]": {"assay": "Safety and pharmacokinetic study of different GTN concentrations compared with sub-lingual Nitrostat", "type": "in vivo, human"}, "[2]": {"tested_on": "mitochondrial and cytosolic aldehyde dehydrogenase", "settings": "in vitro; cited from earlier work"}}}
{"smiles": "O=[N+]([O-])OCC(CO[N+](=O)[O-])O[N+](=O)[O-]", "note": "[GTN, Glyceryl trinitrate]", "values": [{"measurement": "plasma concentration versus dosage level", "setting": "[1]; in vivo", "result": "increased proportionally with increasing dosage level"}, {"measurement": "Tmax", "setting": "[1]; male, human, in vivo, topical or ocular, pharmacokinetic modelling, topical gel, read-out: Tmax of initial zero order entry into systemic circulation", "result": "10 to 12", "unit": "min"}, {"measurement": "first appearance of GTN after application (lag time)", "setting": "[1]; pharmacokinetic modelling, topical gel", "result": "around 4 minutes"}, {"measurement": "time of peak rate of formation of nitric oxide from GTN", "setting": "[2]", "result": "approximately 100 seconds"}]}
